Tested on: PEO1 cells
Experiment: Reversal of RNR inhibition by supplementing deoxyribonucleosides (MTS)
Assay type: cell-based
Conditions: addition of dA plus dG, or all dNs, 72 hr
Procedure: FIG. 2, comprising FIG. 2A through FIG. 2F, depicts representative results of follow-up assays of in silico hit compounds in PEO1 and PEO4 cells. FIG. 2A depicts representative results of cytotoxicity assays on selected 25 in silico hit compounds in PEO1 and PEO4 cells. Cells were plated for 24 hr and then treated with 50 μM compounds for 72 hr. For a positive control, cells were treated with 1 μM triapine for 72 hr. The percentage of cell survival was determined by the MTS cytotoxicity assay. […] Cells were treated with 50 μM compounds or 1 μM triapine for 24 hr. During the last hour, cells were pulse-labeled with EdU, stained with the Click-iT EdU Alexa Fluor 488 Assay Kit, counterstained with 7-AAD, and subsequently analyzed by flow cytometry. EdU-positive cells were gated to determine the percentage of the S phase cell population. […] During the last hour, cells were pulse-labeled with EdU, stained with the Click-iT EdU Alexa Fluor 488 Assay Kit, counterstained with 7-AAD, and subsequently analyzed by flow cytometry. […] The percentages of DNA synthesis in cells treated with each of 10 compounds and triapine relative to the DMSO-treated control is calculated and shown. […] Cells were extracted with 65% methanol for determination of each of dNTPs expressed as pmole/10^6 cells. […] The percentage of cell survival was determined by the MTS cytotoxicity assay. […]

In the case of C=CCn1c(SCc2cccc(Cl)c2)nnc1C1CCN(Cc2nc3ccccc3s2)CC1 [DB4, 2-[(4-{4-allyl-5-[(3-chlorobenzyl)thio]-4H-1,2,4-triazol-3-yl}-1-piperidinyl)methyl]-1,3-benzothiazole], the “reversal of inhibitory effects on cell survival by dNs” value is reported as “partially reversed”.
NC(=S)NN=Cc1ncccc1N [triapine, 3-aminopyridine-2-carboxaldehyde-thiosemicarbazone, reference compound] was tested, and the “reversal of inhibitory effects on cell survival by dNs” value was “partially reversed”.

Reference: patent US20240239786A1, “COMPOSITIONS AND METHODS FOR THE TREATMENT AND PREVENTION OF CANCER” (Yale University, priority 2021, published 2024)
